Test results reported in patent publication US10053433B2, “Androgen receptor antagonists” (THE REGENTS OF THE UNIVERSITY OF CALIFORNIA, priority 2014, dated 2018).
Where two headings read alike, the source gives them in different places.

What was measured:
full length AR = full length AR (Homo sapiens (Human), UniProt P10275); assay: mmTV-luciferase reporter assay, full length AR in HeLa cells; assay type: cell-based
Method: In order to test the effect of antiandrogens on full length AR, a mmTV-luciferase reporter assay was used. An AR-response element is contained within the mmTV sequence and drives the expression of luciferase. The effect of antiandrogens (competitive antagonists) on this process is measured by quantifying the amount of luciferase activity after 24 hours in the presence of varying concentrations of antiandrogens. From these values, an IC50 for each antagonist is calculated. Experimentally, HeLa cells were maintained in Dulbecco's modified Eagle's medium H-21 4.5 g/L glucose, containing 10% steroid depleted fetal bovine serum, 50 units/mL penicillin. For transfection, (1×10^5) cells per well were plated and incubated overnight. […] Cells were induced with 1 nM DHT and 0.1 nM-30 uM compounds after 3 hrs and then incubated overnight. Cells were collected, and pellets were lysed in 100 μL of 100 mM Tris-HCl (pH 7.5) containing 0.1% Triton X-100. Luciferase and β-galactosidase activities were measured using the Luciferase Assay System (Promega) and Galacto-Light Plus-galactosidase reporter gene assay system (Applied Biosystems), according to the manufacturer's instructions.

[1] = molecular target: AR ligand-binding domain (AR LBD) (Homo sapiens (Human), UniProt P10275); assay: Gal4-luciferase reporter assay, Gal-AR LBD in HeLa cells; assay type: cell-based
Text: In order to test the effect of ligands on the AR ligand-binding domain (AR LBD), a Gal4-luciferase reporter assay was used. Briefly, the AR LBD is expressed as a fusion with the Gal4 transcription factor, which binds to the Gal4 reporter DNA. Upon activation with agonist hormone (DHT), the Gal-AR LBD binds to the Gal4 reporter gene, which in turn drives the transcription (and subsequently translation) of the reporter luciferase. The effect of antiandrogens (competitive antagonists) on this process is measured by quantifying the amount of luciferase activity after 24 hours in the presence of varying concentrations of antiandrogens. From these values, an IC50 for each antagonist is calculated. Experimentally, Hela cells were maintained in Dulbecco's modified Eagle's medium H-21 4.5 g/L glucose, containing 10% steroid depleted fetal bovine serum, 50 units/mL penicillin. For transfection, (1×10^5) cells per well were plated and incubated overnight. […] Cells were induced with 1 nM DHT and 0.1 nM-30 uM test compounds after 3 hr and then incubated over night. Cells were collected, and pellets were lysed in 100 μL of 100 mM Tris-HCl (pH 7.5) containing 0.1% Triton X-100. Luciferase and β-galactosidase activities were measured using the Luciferase Assay System (Promega) and Galacto-Light Plus-galactosidase reporter gene assay system (Applied Biosystems), according to the manufacturer's instructions.

[2] = molecular target: endogenous full length AR (Homo sapiens (Human), UniProt P10275, T878A); assay: mmTV-luciferase reporter assay, endogenous AR in LNCaP cells; assay type: cell-based; conditions: 10 nM DHT, read-out: LVCaP data
[3] = in vivo; cited from earlier work
[4] = full length AR, mmTV-luciferase reporter, HeLa cells, 1 nM DHT, read-out: FL IC50
[5] = in relationship to the experimental casodex data
[6] = Gal-AR LBD, Gal4-luciferase reporter, HeLa cells, 1 nM DHT, read-out: LBD IC50

AR ligand-binding domain (AR LBD), sequence (P10275 669-900): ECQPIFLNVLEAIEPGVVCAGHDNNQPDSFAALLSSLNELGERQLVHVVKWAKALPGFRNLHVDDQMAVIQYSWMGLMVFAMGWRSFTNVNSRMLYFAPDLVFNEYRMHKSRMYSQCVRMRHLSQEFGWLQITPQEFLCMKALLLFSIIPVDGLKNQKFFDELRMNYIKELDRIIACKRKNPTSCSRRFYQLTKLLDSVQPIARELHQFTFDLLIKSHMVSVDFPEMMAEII
full length AR, sequence (P10275 other isoform, or with tags, fused parts or gaps): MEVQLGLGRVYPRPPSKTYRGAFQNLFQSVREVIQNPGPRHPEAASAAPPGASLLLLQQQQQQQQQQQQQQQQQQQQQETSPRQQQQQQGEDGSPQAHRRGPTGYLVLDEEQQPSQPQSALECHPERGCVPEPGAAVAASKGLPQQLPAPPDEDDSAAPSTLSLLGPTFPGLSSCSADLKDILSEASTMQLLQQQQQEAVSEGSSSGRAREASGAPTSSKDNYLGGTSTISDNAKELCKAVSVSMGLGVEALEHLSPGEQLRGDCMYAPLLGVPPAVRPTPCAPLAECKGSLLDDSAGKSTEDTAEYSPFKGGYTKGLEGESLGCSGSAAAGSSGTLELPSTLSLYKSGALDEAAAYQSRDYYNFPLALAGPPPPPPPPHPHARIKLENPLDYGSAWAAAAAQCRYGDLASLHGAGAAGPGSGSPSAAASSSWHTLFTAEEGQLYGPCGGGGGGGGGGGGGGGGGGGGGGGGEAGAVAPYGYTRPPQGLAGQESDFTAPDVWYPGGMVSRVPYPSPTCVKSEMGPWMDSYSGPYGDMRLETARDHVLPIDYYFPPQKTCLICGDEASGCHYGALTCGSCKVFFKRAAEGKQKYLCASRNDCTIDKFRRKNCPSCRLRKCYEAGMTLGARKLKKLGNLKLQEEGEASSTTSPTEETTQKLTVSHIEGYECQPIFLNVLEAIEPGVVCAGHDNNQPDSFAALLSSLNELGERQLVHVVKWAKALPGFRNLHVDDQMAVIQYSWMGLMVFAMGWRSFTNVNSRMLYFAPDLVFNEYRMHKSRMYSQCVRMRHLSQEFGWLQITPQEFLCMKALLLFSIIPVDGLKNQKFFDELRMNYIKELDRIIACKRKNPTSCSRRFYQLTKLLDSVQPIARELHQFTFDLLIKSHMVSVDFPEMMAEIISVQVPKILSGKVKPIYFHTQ
endogenous full length AR, sequence (P10275 whole entry T878A): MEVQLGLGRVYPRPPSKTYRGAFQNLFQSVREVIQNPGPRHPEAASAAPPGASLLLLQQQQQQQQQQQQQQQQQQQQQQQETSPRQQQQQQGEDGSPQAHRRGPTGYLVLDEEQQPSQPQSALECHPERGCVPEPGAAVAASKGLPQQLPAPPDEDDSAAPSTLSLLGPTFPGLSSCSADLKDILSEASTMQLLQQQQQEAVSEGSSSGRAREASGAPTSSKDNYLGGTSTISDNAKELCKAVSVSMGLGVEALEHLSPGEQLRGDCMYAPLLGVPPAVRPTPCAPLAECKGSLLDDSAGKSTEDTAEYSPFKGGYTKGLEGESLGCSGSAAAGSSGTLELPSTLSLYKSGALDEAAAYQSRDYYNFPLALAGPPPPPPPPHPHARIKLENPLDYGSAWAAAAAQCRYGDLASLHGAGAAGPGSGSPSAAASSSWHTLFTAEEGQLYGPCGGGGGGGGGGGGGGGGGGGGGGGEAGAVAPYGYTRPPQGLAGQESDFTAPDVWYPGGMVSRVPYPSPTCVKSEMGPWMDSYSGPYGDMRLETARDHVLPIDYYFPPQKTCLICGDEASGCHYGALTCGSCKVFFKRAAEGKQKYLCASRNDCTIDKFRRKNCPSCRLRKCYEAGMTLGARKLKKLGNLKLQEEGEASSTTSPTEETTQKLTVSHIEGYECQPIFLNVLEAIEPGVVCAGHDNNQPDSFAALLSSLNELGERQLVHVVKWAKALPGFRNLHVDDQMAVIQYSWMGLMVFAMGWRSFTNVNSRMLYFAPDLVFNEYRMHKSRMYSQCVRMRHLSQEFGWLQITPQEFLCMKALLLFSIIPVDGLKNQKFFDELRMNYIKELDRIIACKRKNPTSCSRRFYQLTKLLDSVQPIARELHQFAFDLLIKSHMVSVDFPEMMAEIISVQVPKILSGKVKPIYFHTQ

## C[C@](O)(CS(=O)(=O)c1ccc(F)cc1)C(=O)Nc1cc(C(F)(F)F)c(C#N)cn1 [FC 3.077]
Full length AR
  Fold chg (FL): 0.33
[1]
  Fold change*: 0.74
  Fold chg (LBD): 0.74
  IC50: 490 ± 60 nM

## C=CS(=O)(=O)C(c1ccc(NC(=O)[C@@](C)(O)CS(=O)(=O)c2ccc(F)cc2)cc1C(F)(F)F)S(=O)(=O)C=C [FC 4.025]
Full length AR; [4]
  IC50: 1.29 ± 1.29 µM
Full length AR; [5]
  Fold chg (FL): 0.78
[1]; [6]
  IC50: 580 ± 110 nM
[1]; [5]
  Fold chg (LBD): 0.62

## C=CC(=O)Nc1ccc(NC(=O)[C@@](C)(O)CS(=O)(=O)c2ccc(F)cc2)cc1C(F)(F)F [FC 4.039]
[1]; [6]
  IC50: 750 ± 260 nM
[1]; [5]
  Fold chg (LBD): 0.48

## C[C@](O)(CS(=O)(=O)c1ccc(F)cc1)C(=O)Nc1cccc(C(F)(F)F)c1 [FC 4.116]
Full length AR; [4]
  IC50: 71.7 µM
Full length AR; [5]
  Fold chg (FL): 0.014
[1]; [6]
  IC50: 2530 ± 1160 nM
[1]; Table 4, relative to CDX
  Fold change*: 0.14
[1]; [5]
  Fold chg (LBD): 0.14
[2]
  IC50: 530 ± 270 nM

## C[C@](O)(CS(=O)(=O)c1ccc(F)cc1)C(=O)Nc1cc(C(F)(F)F)ccn1 [FC 4.125]
[1]
  IC50: 22400 ± 41800 nM
[1]; Table 4, relative to CDX
  Fold change*: 0.016
[1]; [5]
  Fold chg (LBD): 0.016

## C[C@](O)(CS(=O)(=O)c1ccc(F)cc1)C(=O)Nc1cncc(C(F)(F)F)c1 [FC 4.126]
Full length AR; [4]
  IC50: 12.4 ± 14.2 µM
Full length AR; [5]
  Fold chg (FL): 0.08
[1]; [6]
  IC50: 1550 ± 410 nM
[1]; Table 4, relative to CDX
  Fold change*: 0.23
[1]; [5]
  Fold chg (LBD): 0.23
[2]
  IC50: 110 ± 20 nM

## C[C@](O)(CS(=O)(=O)c1ccc(F)cc1)C(=O)Nc1ccc([N+](=O)[O-])c(C(F)(F)F)c1 [FC 4.127]
Full length AR
  Fold chg (FL): 0.11
  IC50: 8.74 ± 15.8 µM
[1]
  Fold change*: 0.05
  Fold chg (LBD): 0.050
  IC50: 7260 ± 10700 nM

## CC(O)(CS(=O)(=O)c1ccc(F)cc1)C(=O)Nc1ccc(C#N)c(C(F)(F)F)c1 (stereo not shown) [bicalutamide]
[3]
  tolerability: well tolerated with very few side effects
